Consider three compounds from PubChem BioAssay AID504479 (NMMLSC, 2011).

Molecules are shown by their SMILES. Activity calls are given as the source filed them.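 The calls were made as follows: active = GFP ratio vs DMSO below 0.65 in a strain, using the primary screen cutoff set for that strain's protein target; inactive = the rest.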

What all share (experiment): TORC1 pathway position of GFP reporter effects – S. cerevisiae, TORC1 bypass vs wild-type strains, mechanism study for yeast TOR pathway modulator project (AID 504479)
What all share (details): fluorescence ratio vs DMSO, at 10 µM

Assay [1] relates to YNL142W.
Assay [2] deals with BY4741.
Assay [3] concerns YBR084C-A.
The test system of assay [4] is YCL025C.
For assay [5], the system named is YCR005C.
Assay [6] deals with YKL103C.
Setting [7] is: MEP2-GFP in TORC1 bypass strain, stronger effect = higher value.
Where [8] appears, read: RPL19A-GFP in TORC1 bypass strain, stronger effect = lower value.
[9] abbreviates: AGP1-GFP in TORC1 bypass strain, stronger effect = higher value.
The mark [10] stands for this setting: CIT2-GFP in TORC1 bypass strain, stronger effect = higher value.
The mark [11] stands for this setting: LAP4-GFP in TORC1 bypass strain, stronger effect = higher value.

In the case of `O=[N+]([O-])c1ccc(S(=O)(=O)c2cccc(C(F)(F)F)c2)nc1`, the GFP ratio vs DMSO in assay [1] (setting [7]) was 1.04; in assay [1], 1.52 (inactive); in assay [2], 1.03 (inactive); in assay [3] (setting [8]), 0.969; in assay [3], 0.902 (inactive); in assay [4] (setting [9]), 0.813. Besides, the GFP ratio vs DMSO in assay [4] is 1.04 (inactive); in assay [5] (setting [10]), 0.934; in assay [5], 0.976 (inactive); in assay [6] (setting [11]), 1.63; in assay [6], 2.2.

With `CC1=NN(c2ccccc2)C(=O)C1C(c1ccccc1[N+](=O)[O-])C(C#N)C#N` (stereo not drawn), the GFP ratio vs DMSO in assay [1] (setting [7]) was 0.948; in assay [1], 1.03 (inactive); in assay [2], 0.941 (inactive); in assay [3] (setting [8]) it was 1.04; in assay [3], 1.09 (inactive); in assay [4] (setting [9]), 0.682. Further, the GFP ratio vs DMSO in assay [4] is 0.947 (inactive); in assay [5] (setting [10]) it was 1.15; in assay [5] it was 1.13 (inactive); in assay [6] (setting [11]), 1.44; in assay [6], 2.26.

Take `O=[N+]([O-])c1cc(Cl)c2cccnc2c1O`: the GFP ratio vs DMSO in assay [1] (setting [7]) is 0.964; in assay [1] it was 0.937 (inactive); in assay [2] it was 0.755 (inactive); in assay [3] (setting [8]), 0.937; in assay [3], 1.04 (inactive); in assay [4] (setting [9]), 0.738. Moreover, the GFP ratio vs DMSO in assay [4] was 0.999 (inactive); in assay [5] (setting [10]), 0.67; in assay [5], 0.937 (inactive); in assay [6] (setting [11]), 1.17; in assay [6] it was 1.52.
